Legend:
[1] = target: T1, 5-hydroxytryptamine receptor 6 (Homo sapiens, UniProt P50406); assay: Displacement of [3H]LSD from human HT6 receptor expressed in human HeLa cells; format: cell-based
[2] = target: T1, 5-hydroxytryptamine receptor 6; assay: Agonist activity at human HT6 receptor expressed in human HeLa cells assessed as intracellular cAMP level by radioimmunoassay relative to serotonin; format: functional, cell-based
[3] = target: T1, 5-hydroxytryptamine receptor 6; assay: Agonistic activity at human HT6 receptor expressed in HeLa cells assessed as intracellular cAMP level by radioimmunoassay
[4] = target: T1, 5-hydroxytryptamine receptor 6; assay: Displacement of [3H]LSD from human HT6 receptor expressed in HeLa cells at 1 uM relative to serotonin; format: cell-based
[5] = target: T1, 5-hydroxytryptamine receptor 6; assay: Antagonistic activity at human HT6 receptor expressed in HeLa cells assessed as intracellular cAMP level by radioimmunoassay; format: functional, cell-based
[6] = target: T1, 5-hydroxytryptamine receptor 6; assay: Antagonistic activity at human HT6 receptor expressed in HeLa cells assessed as intracellular cAMP level by radioimmunoassay relative to serotonin; format: functional, cell-based

T1 sequence (P50406 whole entry): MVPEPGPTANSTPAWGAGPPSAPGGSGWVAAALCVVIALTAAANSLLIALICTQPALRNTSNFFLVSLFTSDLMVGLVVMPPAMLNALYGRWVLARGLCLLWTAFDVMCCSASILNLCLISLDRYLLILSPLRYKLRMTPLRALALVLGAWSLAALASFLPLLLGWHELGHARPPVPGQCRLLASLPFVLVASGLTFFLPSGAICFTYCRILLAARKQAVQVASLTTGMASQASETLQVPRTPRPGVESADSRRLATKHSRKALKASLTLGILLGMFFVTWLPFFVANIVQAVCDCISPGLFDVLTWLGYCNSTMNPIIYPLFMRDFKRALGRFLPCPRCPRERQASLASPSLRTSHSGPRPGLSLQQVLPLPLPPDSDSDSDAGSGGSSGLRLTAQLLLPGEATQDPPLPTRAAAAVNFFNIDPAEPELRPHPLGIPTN

Structure (SMILES) | Ki [1] [nM] | Emax [2] [%] | also measured
NCCn1cc(S(=O)(=O)c2cccc(Cl)c2)c2ncccc21 | 35 | 56 | EC50 [3]: 197 nM
CN(C)CCn1cc(S(=O)(=O)c2cccc(F)c2)c2cccnc21 |  | 100 | 
CC(=O)c1ccc2c(n1)c(S(=O)(=O)c1ccccc1)cn2CCN(C)C | 56 |  | 
CN(C)CCn1cc(S(=O)(=O)c2ccccc2)c2cnccc21 |  |  | Activity [4]: 39%
CC(=O)c1ccc2c(n1)c(S(=O)(=O)c1ccc(Br)cc1)cn2CCN(C)C | 3.9 |  | IC50 [5]: 385 nM; Imax [6]: 100%
Cc1cccc(S(=O)(=O)c2cn(CCN)c3cccnc23)c1 | 46 |  | 
COc1ccc2c(n1)c(S(=O)(=O)c1cccc3ccccc13)cn2CCN(C)C | 1.7 |  | IC50 [5]: 295 nM; Emax [6]: 100%
NCCn1cc(S(=O)(=O)c2cccc(F)c2)c2ncccc21 | 76 | 51 | EC50 [3]: 823 nM
CN(C)CCn1cc(S(=O)(=O)c2ccccc2)c2cccnc21 |  | 94 | 
CN(C)CCn1cc(S(=O)(=O)c2ccccc2)c2cc(Cl)ncc21 |  |  | Activity [4]: 55%
NCCn1cc(S(=O)(=O)c2c(Cl)nc3sccn23)c2ncccc21 | 42 |  | 
COc1ccc2c(n1)c(S(=O)(=O)c1cccc(F)c1)cn2CCN(C)C | 11.3 |  | IC50 [5]: 41 nM; Emax [6]: 91%
CN(C)CCn1cc(S(=O)(=O)c2ccccc2)c2ncccc21 | 368 |  | 
